PMC2806265, “Divergence of allosteric effects of rapacuronium on binding and function of muscarinic receptors” (BMC Pharmacology, 2009)

Legend:
M2 muscarinic receptor [1] = target: T1, M2 muscarinic receptor (Homo sapiens, UniProt P08172); assay: [35S]GTPγS binding to membranes; type: biochemical; design: host or cells: CHO cells, stably transfected; membrane preparation; conditions: for EMAX of ACh on [^35S]GTPγS binding: fold of basal
T1 sequence (P08172 1-466): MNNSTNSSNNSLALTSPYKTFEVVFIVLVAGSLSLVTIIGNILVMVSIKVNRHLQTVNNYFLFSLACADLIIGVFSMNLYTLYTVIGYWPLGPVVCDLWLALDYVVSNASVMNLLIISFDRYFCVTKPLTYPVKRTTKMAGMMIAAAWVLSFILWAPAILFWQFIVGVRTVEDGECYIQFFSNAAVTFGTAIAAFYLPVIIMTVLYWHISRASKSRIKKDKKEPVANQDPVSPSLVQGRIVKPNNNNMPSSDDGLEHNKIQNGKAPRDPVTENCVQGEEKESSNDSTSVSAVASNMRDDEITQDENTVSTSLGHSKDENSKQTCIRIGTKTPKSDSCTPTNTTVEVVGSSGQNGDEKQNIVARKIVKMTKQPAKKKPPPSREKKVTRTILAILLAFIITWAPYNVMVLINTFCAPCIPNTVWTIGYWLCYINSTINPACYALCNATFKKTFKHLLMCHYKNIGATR
Experimental: For determination of [^35S]GTPγS binding to G-proteins in membranes a final concentration of 200 pM (M1, M3 and M5 receptors) or 500 pM (M2 and M4 receptors) of [^35S]GTPγS was used. Incubation medium was supplemented with 5 μM (M1, M3 and M5 receptors) or 50 μM (M2 and M4 receptors) GDP. […] Incubation with [^35S]GTPγS was carried out for 20 min and free ligand was removed by filtration as described above. Filtration and washing with ice-cold water lasted for 9 s (wash-aspirate button time).

[2] = test system: nontransfected CHO-K1 cells; assay: [35S]GTPγS binding to membranes from nontransfected cells; type: biochemical, Chinese hamster
Experimental: Figure 6 Effects of rapacuronium on ACh-induced [^35S]GTPγS binding to membranes. Membranes from CHO cells expressing individual subtypes of muscarinic receptors or nontransfected CHO-K1 cells were preincubated for 60 min with buffer (closed symbols) or with rapacuronium (open symbols). […] Data are expressed as fold increase of basal [^35S]GTPγS binding and are presented as means ± SE from 3 independent experiments performed in quadruplicates. Curves are fits of Eq. 5 to data.

M5 muscarinic receptor [3] = target: T2, M5 muscarinic receptor (Homo sapiens, UniProt P08912); assay: [3H]NMS saturation binding
T2 sequence (P08912 1-532): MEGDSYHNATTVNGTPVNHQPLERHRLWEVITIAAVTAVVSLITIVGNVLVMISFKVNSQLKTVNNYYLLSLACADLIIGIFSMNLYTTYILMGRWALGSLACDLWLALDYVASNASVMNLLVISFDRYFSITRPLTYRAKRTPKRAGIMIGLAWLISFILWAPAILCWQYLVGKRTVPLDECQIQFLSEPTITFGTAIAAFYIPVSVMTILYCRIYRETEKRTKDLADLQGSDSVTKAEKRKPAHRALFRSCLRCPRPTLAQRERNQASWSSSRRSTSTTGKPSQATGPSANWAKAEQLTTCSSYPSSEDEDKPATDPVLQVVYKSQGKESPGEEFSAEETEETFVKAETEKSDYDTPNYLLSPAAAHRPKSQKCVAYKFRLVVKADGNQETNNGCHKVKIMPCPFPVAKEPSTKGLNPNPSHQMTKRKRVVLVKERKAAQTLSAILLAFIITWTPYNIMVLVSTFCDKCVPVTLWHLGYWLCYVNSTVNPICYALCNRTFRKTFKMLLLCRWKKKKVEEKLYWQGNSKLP
Source text: (§3) BMAX, maximum binding capacity; KD, equilibrium dissociation constant.

M4 muscarinic receptor [4] = target: T3, M4 muscarinic receptor (Homo sapiens, UniProt P08173); assay: Effect of rapacuronium on high-affinity 20 nM [3H]ACh binding; design: host or cells: CHO cells, stably transfected; membranes
T3 sequence (P08173 1-479): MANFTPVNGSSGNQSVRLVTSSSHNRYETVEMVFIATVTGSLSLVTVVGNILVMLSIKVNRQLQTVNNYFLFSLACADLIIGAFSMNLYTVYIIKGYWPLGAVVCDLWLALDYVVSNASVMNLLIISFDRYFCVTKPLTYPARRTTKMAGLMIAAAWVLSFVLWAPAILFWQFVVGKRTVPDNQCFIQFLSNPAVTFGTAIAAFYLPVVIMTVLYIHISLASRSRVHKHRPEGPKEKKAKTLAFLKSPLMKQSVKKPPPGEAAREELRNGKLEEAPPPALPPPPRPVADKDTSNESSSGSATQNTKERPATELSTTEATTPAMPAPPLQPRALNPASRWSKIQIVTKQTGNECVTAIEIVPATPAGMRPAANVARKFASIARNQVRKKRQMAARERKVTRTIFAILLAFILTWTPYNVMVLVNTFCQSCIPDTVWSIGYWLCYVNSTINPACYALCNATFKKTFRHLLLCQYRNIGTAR
Source text: (§1) Cooperativity factor greater than 1 denotes negative cooperativity and less than 1 positive cooperativity. Due to its log-normal error distribution factors of cooperativity are expressed as negative logarithms (pα) through the manuscript so negative values denotes negative cooperativity and positive value denotes positive cooperativity.

M5 muscarinic receptor [5] = target: T2, M5 muscarinic receptor; assay: as above; design: host or cells: CHO cells, stably transfected; membranes
Source text: as §1

M4 muscarinic receptor [6] = target: T3, M4 muscarinic receptor; assay: [3H]NMS saturation binding
Source text: as §3

M3 muscarinic receptor = target: T4, M3 muscarinic receptor (Homo sapiens, UniProt P20309); type: biochemical; conditions: CHO-M3 membranes
T4 construct: host or cells: CHO cells, stably transfected; membranes
Source text: Time course of association(6) [drawing 6]
(§2) y, radioligand binding at time x; kobs, observed rate of association; equilibrium binding Beq = Bottom + Span.

M4 muscarinic receptor [7] = target: T3, M4 muscarinic receptor; assay: Effect of rapacuronium on 1 nM [3H]NMS binding; design: host or cells: CHO cells, stably transfected; membranes
Source text: as §1

M5 muscarinic receptor [8] = target: T2, M5 muscarinic receptor; assay: Effect of rapacuronium on 1 nM [3H]NMS binding; design: host or cells: CHO cells, stably transfected; membranes
Source text: as §1

M2 muscarinic receptor [9] = target: T1, M2 muscarinic receptor; assay: [3H]ACh association and dissociation kinetics; type: binding; design: host or cells: CHO cells, stably transfected; membrane preparation; conditions: 10 μM rapacuronium, 40 nM [^3H]ACh
Source text: as §2
y, radioligand binding at time x normalized to binding at time 0; koff1 and koff2, dissociation rate constants; f2, fraction of binding site with dissociation rate constant koff2. When both Eq. 7a and 7b were fitted to data the better fit was chosen based on sum of squares F-test and runs test.

[10] = M4, negative value = negative cooperativity
[11] = read-out: pKA of rapacuronium (converted)
[12] = M5, negative value = negative cooperativity

T4 sequence (P20309 whole entry): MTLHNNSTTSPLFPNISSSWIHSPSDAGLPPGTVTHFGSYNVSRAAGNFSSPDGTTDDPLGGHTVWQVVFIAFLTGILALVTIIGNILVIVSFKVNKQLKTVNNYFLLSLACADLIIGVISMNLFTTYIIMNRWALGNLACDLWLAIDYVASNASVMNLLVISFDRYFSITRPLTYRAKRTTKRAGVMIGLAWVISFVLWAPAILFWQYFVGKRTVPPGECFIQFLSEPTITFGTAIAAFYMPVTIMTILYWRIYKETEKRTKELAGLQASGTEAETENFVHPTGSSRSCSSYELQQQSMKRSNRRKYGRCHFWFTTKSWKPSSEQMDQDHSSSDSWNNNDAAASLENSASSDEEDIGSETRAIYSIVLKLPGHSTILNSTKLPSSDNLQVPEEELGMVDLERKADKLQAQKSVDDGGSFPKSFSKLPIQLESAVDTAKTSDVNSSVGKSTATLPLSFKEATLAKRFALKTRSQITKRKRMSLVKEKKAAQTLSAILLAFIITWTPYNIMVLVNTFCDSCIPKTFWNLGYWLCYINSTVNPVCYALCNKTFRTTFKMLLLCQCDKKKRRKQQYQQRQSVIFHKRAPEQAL

SMILES: C=CC[N+]1([C@H]2C[C@H]3[C@@H]4CC[C@H]5C[C@H](OC(C)=O)[C@@H](N6CCCCC6)C[C@]5(C)[C@H]4CC[C@]3(C)[C@H]2OC(=O)CC)CCCCC1 [rapacuronium]
- EMAX of ACh on [^35S]GTPγS binding (M2 muscarinic receptor [1]; + 0.1 μM rapacuronium): 3.10 ± 0.15
- EMAX of ACh on [^35S]GTPγS binding (M2 muscarinic receptor [1]; + 1 μM rapacuronium): 2.93 ± 0.13
- EMAX of ACh on [^35S]GTPγS binding (M2 muscarinic receptor [1]; + 10 μM rapacuronium): 2.46 ± 0.18
- EMAX of rapacuronium on [^35S]GTPγS binding (M2 muscarinic receptor [1]; rapacuronium alone, normalized to absence of rapacuronium): 0.84 ± 0.06
- EC50 (M2 muscarinic receptor [1]; rapacuronium alone, read-out: pEC50 of rapacuronium on [^35S]GTPγS binding (converted)): 28.2 µM
- effect on [^35S]GTPγS binding [2]: did not decrease
- BMAX of [^3H]NMS (M5 muscarinic receptor [3]; + 10 μM rapacuronium): 1.53 ± 0.15 fmol/μg of protein
- BMAX of [^3H]NMS (M5 muscarinic receptor [3]; + 100 μM rapacuronium): 1.33 ± 0.13 fmol/μg of protein
- pα, cooperativity with [^3H]ACh high affinity binding (M4 muscarinic receptor [4]; [10]): -1.51 ± 0.05
- Kd (M4 muscarinic receptor [4]; [11]): 3.89 µM
- pα, cooperativity with [^3H]ACh high affinity binding (M5 muscarinic receptor [5]; [12]): -1.34 ± 0.07
- Kd (M5 muscarinic receptor [5]; [11]): 12 µM
- BMAX of [^3H]NMS (M4 muscarinic receptor [6]; + 10 μM rapacuronium): 1.17 ± 0.13 fmol/μg of protein
- BMAX of [^3H]NMS (M4 muscarinic receptor [6]; + 100 μM rapacuronium): 1.06 ± 0.10 fmol/μg of protein
- effect on rate of [^35S]GTPγS binding (M3 muscarinic receptor; 1 μM rapacuronium alone): slightly decreased
- increase in [^35S]GTPγS binding at 5 min incubation (M3 muscarinic receptor; 10 μM ACh + 1 μM rapacuronium): ~5 fold
- observed rate (kobs) of [^35S]GTPγS binding (M3 muscarinic receptor; 10 μM ACh + 1 μM rapacuronium): 0.166 ± 0.013 min⁻¹
- estimated [^35S]GTPγS equilibrium binding (Beq) (M3 muscarinic receptor; 10 μM ACh with 1 μM rapacuronium): 9,980 ± 120 cpm per well
- pα, cooperativity with [^3H]NMS (M4 muscarinic receptor [7]; [10]): -1.40 ± 0.04
- Kd (M4 muscarinic receptor [7]; [11]): 3.8 µM
- decrease in affinity of [^3H]NMS (cooperativity) (M5 muscarinic receptor [8]; M5): 35 fold
- pα, cooperativity with [^3H]NMS (M5 muscarinic receptor [8]; [12]): -1.54 ± 0.05
- Kd (M5 muscarinic receptor [8]; [11]): 10.7 µM
- time of peak of [^3H]ACh association (M2 muscarinic receptor [9]): around 90 seconds
